From ChEMBL document CHEMBL1201862, “PubChem BioAssay data set” (2004)
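Growth conditions: 96-well plates. Treatment: test compound, 48 hours, 5 concentrations. Analysis: linear interpolation between bracketing concentrations; unreached endpoints set to highest concentration. Here, GI50 denotes the concentration required for 50% inhibition of growth.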 Active and inactive are the calls of the source. Cut-off read from the data, not from the text of the source: active = GI50 up to about 1.1 µM and inactive = higher.

What was measured:
Assay in all cases: inhibition of tumour cell growth, NCI panel, 48 h
A549 = test system: A549
OVCAR-4 = test system: OVCAR-4
CCRF-CEM = test system: CCRF-CEM
TK-10 = test system: TK-10
EKVX = test system: EKVX
HOP-62 = test system: HOP-62
PC-3 = test system: PC-3
SK-OV-3 = test system: SK-OV-3
LOX IMVI = test system: LOX IMVI
COLO 205 = test system: COLO 205
NCI-H522 = test system: NCI-H522
SK-MEL-28 = test system: SK-MEL-28
SN12C = test system: SN12C
SW-620 = test system: SW-620
U-251 = test system: U-251
SNB-19 = test system: SNB-19
IGROV-1 = test system: IGROV-1
MOLT-4 = test system: MOLT-4
MDA-MB-435 = test system: MDA-MB-435

SMILES	GI50 (A549)	GI50 (OVCAR-4)	GI50 (CCRF-CEM)	GI50 (TK-10)	GI50 (EKVX)	GI50 (HOP-62)	GI50 (PC-3)	GI50 (SK-OV-3)	GI50 (LOX IMVI)	GI50 (COLO 205)	GI50 (NCI-H522)	GI50 (SK-MEL-28)	GI50 (SN12C)	GI50 (SW-620)	GI50 (U-251)	GI50 (SNB-19)	GI50 (IGROV-1)	GI50 (MOLT-4)	GI50 (MDA-MB-435)
Cc1cc2c(cc1Cl)Sc1nnc(C)n1S2(=O)=O	25.1 µM (inactive)	12.5 µM (inactive)	8.53 µM (inactive)	15.6 µM (inactive)	16 µM (inactive)	20 µM (inactive)	15 µM (inactive)	26.6 µM (inactive)	10.1 µM (inactive)	15.2 µM (inactive)	8.69 µM (inactive)	16.9 µM (inactive)	14.8 µM (inactive)	15.4 µM (inactive)	15.1 µM (inactive)	23.5 µM (inactive)	12.3 µM (inactive)	14.4 µM (inactive)	13 µM (inactive)
O=Cc1ccc2c(c1)CC1(C2)Cc2ccc(C=O)cc2C1	40.5 µM (inactive)	12.4 µM (inactive)	1.68 µM (inactive)	8.81 µM (inactive)	28.2 µM (inactive)	14.7 µM (inactive)	17.1 µM (inactive)	55.2 µM (inactive)	6.07 µM (inactive)	30.3 µM (inactive)	22.6 µM (inactive)	23.7 µM (inactive)	28.2 µM (inactive)	16.1 µM (inactive)	8.69 µM (inactive)	25.1 µM (inactive)	21.5 µM (inactive)	2.77 µM (inactive)	2.62 µM (inactive)
COc1cc2c(cc1-c1coc3cc(OCC=C(C)C)ccc3c1=O)OCO2	28.6 µM (inactive)	13.5 µM (inactive)	> 10 µM (inactive)	48.4 µM (inactive)	24.3 µM (inactive)	29.8 µM (inactive)	42.8 µM (inactive)	41.5 µM (inactive)	19.3 µM (inactive)	29.4 µM (inactive)	15.5 µM (inactive)	45.8 µM (inactive)	27.8 µM (inactive)	25.5 µM (inactive)	35.2 µM (inactive)	27.4 µM (inactive)	30.8 µM (inactive)	10.9 µM (inactive)	9.25 µM (inactive)
Cn1/c(=N\S(=O)(=O)c2ccccc2)n(S(=O)(=O)c2ccccc2)c2ccccc21	47.5 µM (inactive)	> 100 µM (inactive)	24.7 µM (inactive)	> 100 µM (inactive)	63.5 µM (inactive)	38.8 µM (inactive)	29.5 µM (inactive)	> 100 µM (inactive)	> 100 µM (inactive)	32.9 µM (inactive)	50.4 µM (inactive)	> 100 µM (inactive)	87.3 µM (inactive)	93.1 µM (inactive)	34.7 µM (inactive)	89.3 µM (inactive)	> 100 µM (inactive)	42.9 µM (inactive)	58.9 µM (inactive)
COc1ccc(N[C@H](C[S+]([O-])c2ccc(C)cc2)c2ccc(F)cc2)cc1 (stereo partly specified)	43 µM (inactive)	94.2 µM (inactive)	> 100 µM (inactive)	> 100 µM (inactive)	> 100 µM (inactive)	33.7 µM (inactive)	82.4 µM (inactive)	72.3 µM (inactive)	> 100 µM (inactive)	> 100 µM (inactive)	13.2 µM (inactive)	> 100 µM (inactive)	54.3 µM (inactive)	> 100 µM (inactive)	44.5 µM (inactive)	35.8 µM (inactive)	< 0.01 µM (active)	> 100 µM (inactive)	> 100 µM (inactive)
CCOC(=O)c1c(C)n(-c2ccc(Cl)cc2)c2c1cc(O)c1[nH]c3c(c12)CCCC3	> 100 µM (inactive)	45.8 µM (inactive)	32.4 µM (inactive)	> 100 µM (inactive)	75.7 µM (inactive)	> 100 µM (inactive)	41 µM (inactive)	> 100 µM (inactive)	29.4 µM (inactive)	48.8 µM (inactive)	24.3 µM (inactive)	33.2 µM (inactive)	65.2 µM (inactive)	47.3 µM (inactive)	38.3 µM (inactive)	46.3 µM (inactive)	44.4 µM (inactive)	26.4 µM (inactive)	24.9 µM (inactive)
C[C@]12c3c4cc(NC(=O)C(=O)NCc5ccc(-c6ccccn6)nc5)cc3Oc3cc(NC(=O)C(=O)NCc5ccc(-c6ccccn6)nc5)cc(c31)OC1C=C(NC(=O)C(=O)NCc3ccc(-c5ccccn5)nc3)C=C(O4)C12 (stereo partly specified)	86.5 µM (inactive)	3.47 µM (inactive)	16.6 µM (inactive)	> 100 µM (inactive)	11.5 µM (inactive)	> 100 µM (inactive)	61.5 µM (inactive)	17 µM (inactive)	17.6 µM (inactive)	23.1 µM (inactive)	66.5 µM (inactive)	95.1 µM (inactive)	40.9 µM (inactive)	> 100 µM (inactive)	84.9 µM (inactive)	> 100 µM (inactive)	16.9 µM (inactive)	12.6 µM (inactive)	97.9 µM (inactive)
Cn1c(=O)c2c(ncn2CCNC(CO)C(O)c2ccc([N+](=O)[O-])cc2)n(C)c1=O (stereo unspecified)	> 100 µM (inactive)	> 100 µM (inactive)	> 100 µM (inactive)	> 100 µM (inactive)	> 100 µM (inactive)	> 100 µM (inactive)	> 100 µM (inactive)	> 100 µM (inactive)	> 100 µM (inactive)	> 100 µM (inactive)	> 100 µM (inactive)	> 100 µM (inactive)	> 100 µM (inactive)	> 10 µM (inactive)	> 100 µM (inactive)	> 100 µM (inactive)	> 10 µM (inactive)	> 100 µM (inactive)	> 100 µM (inactive)
CCc1cc2c(cc1C(=O)CCC(=O)O)CC1(C2)Cc2cc(CC)c(C(=O)CCC(=O)O)cc2C1	> 100 µM (inactive)	> 100 µM (inactive)	32.2 µM (inactive)	> 100 µM (inactive)	> 100 µM (inactive)	> 100 µM (inactive)	> 100 µM (inactive)	> 100 µM (inactive)	> 100 µM (inactive)	> 100 µM (inactive)	> 100 µM (inactive)	35.6 µM (inactive)	> 100 µM (inactive)	> 100 µM (inactive)	> 100 µM (inactive)	> 100 µM (inactive)	> 100 µM (inactive)	> 100 µM (inactive)	> 100 µM (inactive)
O=[N+]([O-])c1ccc(O)c(/C=N/c2nc(-c3ccccc3)cs2)c1	38.5 µM (inactive)	58.3 µM (inactive)	43.3 µM (inactive)	42.5 µM (inactive)	31.3 µM (inactive)	26.7 µM (inactive)	33.3 µM (inactive)	32.5 µM (inactive)	15.8 µM (inactive)	19.6 µM (inactive)	19.2 µM (inactive)	31.9 µM (inactive)	34.8 µM (inactive)	37.6 µM (inactive)	32.2 µM (inactive)	29 µM (inactive)	24.2 µM (inactive)	17.9 µM (inactive)	35.5 µM (inactive)
COc1ccc2nc3cccc([N+](=O)[O-])c3c(NCCN(C)C)c2c1	0.0515 µM (active)	0.116 µM (active)	0.16 µM (active)	0.263 µM (active)	0.186 µM (active)	0.119 µM (active)	0.108 µM (active)	0.255 µM (active)	0.0325 µM (active)	0.0284 µM (active)	0.0209 µM (active)	0.161 µM (active)	0.11 µM (active)	0.14 µM (active)	0.149 µM (active)	0.282 µM (active)	0.167 µM (active)	0.103 µM (active)	0.0826 µM (active)
Cc1ccc(S(=O)(=O)Oc2ccc(OS(=O)(=O)c3ccc(C)cc3)c3c2C(=O)c2ccccc2C3=O)cc1	> 100 µM (inactive)	> 100 µM (inactive)	> 100 µM (inactive)	> 100 µM (inactive)	> 100 µM (inactive)	37.8 µM (inactive)	> 100 µM (inactive)	> 100 µM (inactive)	> 100 µM (inactive)	> 100 µM (inactive)	> 100 µM (inactive)	> 100 µM (inactive)	> 100 µM (inactive)	> 100 µM (inactive)	> 100 µM (inactive)	54.6 µM (inactive)	> 100 µM (inactive)	> 100 µM (inactive)	> 100 µM (inactive)
O=c1[nH]nc(Cc2ccccc2)n1-n1cnnc1	> 100 µM (inactive)	> 100 µM (inactive)	> 100 µM (inactive)	> 100 µM (inactive)	> 100 µM (inactive)	> 100 µM (inactive)	> 100 µM (inactive)	> 100 µM (inactive)	> 100 µM (inactive)	> 100 µM (inactive)	> 100 µM (inactive)	> 100 µM (inactive)	> 100 µM (inactive)	> 100 µM (inactive)	> 100 µM (inactive)	> 100 µM (inactive)	> 100 µM (inactive)	> 100 µM (inactive)	> 100 µM (inactive)
CC(=O)CCn1c(=S)sc2ccccc21	> 100 µM (inactive)	> 100 µM (inactive)	25.6 µM (inactive)	> 100 µM (inactive)	> 100 µM (inactive)	> 100 µM (inactive)	> 100 µM (inactive)	86.9 µM (inactive)	> 100 µM (inactive)	> 100 µM (inactive)	19.4 µM (inactive)	> 100 µM (inactive)	> 100 µM (inactive)	> 100 µM (inactive)	> 100 µM (inactive)	> 100 µM (inactive)	98.6 µM (inactive)	> 100 µM (inactive)	> 100 µM (inactive)
